From patent US9782368B2, “Use of N,N-bis-2-mercaptoethyl isophthalamide” (EMERAMED LIMITED, priority 2014, dated 2017)
Where two headings read alike, the source gives them in different places.

Tested on: cigarette smoke (CS)-induced airway disease
Assay type: in vivo, BALB/c mice
Details: for weight gained compared to start weight: CS-exposed
Procedure: The 14 day dose-finding study was therefore followed by a 90 day study using essentially the same apparatus and protocol described in Example 4 above. On this occasion, the 5 treatment groups were as follows: • 1. Daily exposure to clean air (Placebo Group; Gr. 1) • 2. Daily exposure to CS (CS-Exposed Placebo Group; Gr. 2) • 3. Daily exposure to CS; treated with NBMI at a 30 mg/kg dose (NBMI 30 mg/kg Group; Gr. 3) • 4. Daily exposure to CS; treated with NBMI at a 60 mg/kg dose (NBMI 60 mg/kg Group; Gr. 4) • 5. Daily exposure to CS; treated with NBMI at a 150 mg/kg dose (NBMI 150 mg/kg Group; Gr. 5) On Day 91, animals were weighed and anesthetised with pentobarbital sodium (90 mg/kg body weight, i.p.). Mice were tracheotomised with an 18-gauge cannula and mechanically ventilated in a quasi-sinusoidal fashion with a small animal ventilator (flexiVent™, SCIREQ®) at a frequency of 3 Hz and a tidal volume (VT) of 12 ml/kg body weight. A positive end-expiratory pressure of 3 cm H2O was applied. The animal's cardiac output was monitored throughout the respiratory mechanics assessment. Mice were paralysed with pancuronium (0.1 mg/kg body weight, i.p. (local suppliers)) before 4 sigh manoeuvres at 3×VT were performed at the beginning of the experiment to establish stable baseline respiratory mechanics and to ensure a similar volume history before the experiment. Dynamic lung mechanics were measured by applying a sinusoidal standardised breath and analysed using the single compartment model and multiple linear regression, giving respiratory resistance (RRS), elastance (ERS) and compliance (CRS). The measurement of RRS reflects both narrowing of the conducting airways and alterations in the lung. The measurement of CRS and ERS reflects only events in the lung periphery, particularly airway closure leading to lung unit de-recruitment. By contrast, a selective change in CRS is indicative of a more distal site of action. More thorough evaluations of lung mechanics were made using forced oscillation technique (FOT) according to Jonasson et al., Respir. Res., 9, 23 (2008) and Respir. Physiol. Neurobiol., 165, 229 (2009). The parameters obtained from the FOT measurements in this study were: Newtonian resistance (RN), tissue damping (G), which is closely related to tissue resistance and reflects energy dissipation in the lung tissues; and tissue elastance (H), which characterises tissue stiffness and reflects energy storage in the tissues. Dynamic pressure-volume (PV) curves were determined by inflating the lungs to a maximum pressure of 30 cm H2O, allowing passive exhalation using the computer-controlled Flexivent ventilator for measuring volume and pressure. Individual results from each animal were compiled. All PV-measurements were performed in triplicate. Quasi-static PV loops were obtained by a slow stepwise inflation and deflation of the lungs. PV loops were performed for PEEP-levels, 3 cm H2O. The shape factor (k) of the descending limb of the PV loop was calculated by fitting the data to the Salazar-Knowles equation. The value of the parameter k is believed to change characteristically with both fibrosis and emphysema. The quasi-static compliance (Cst) and elastance (Est) and the volume air inspired sufficient to reach 20 cm water were also obtained. Bronchoalveolar lavage (BAL) was carried out essentially as described in Example 4 above, as was flow cytometry analysis of cells from BAL and analysis of inflammatory mediators in BAL and serum. Frozen lung tissue was homogenised together with 1 mL PBS in a 2 mL tube, using a mixer mill (Retch mm400) for 2 minutes at 4° C. Immediately after homogenisation, the tube was centrifuged for 15 minutes (1500 rpm, 4° C.). The supernatant was removed and saved for protein concentration determination using a NanoDrop spectrophotometer (Proteins A280). After analysing the protein content, equal amounts of protein from each sample were saved for the transforming growth factor beta (TGFβ) 1-3 analysis. […]

## O=C(NCCS)c1cccc(C(=O)NCCS)c1 [NBMI, N,N-bis-2-mercaptoethyl isophthalamide]
30, 60 and 150 mg/kg
  respiratory function (PV-curves) vs placebo group Gr. 2: did not display significantly changed respiratory function
30, 60 and 150 mg/kg, Day 90
  macrophages in BAL fluid: did not have significantly lower numbers of macrophages
Day 90, Gr. 3, 30 mg/kg
  weight gained compared to start weight: 1.0 ± 0.4 g
Day 90, Gr. 4, 60 mg/kg
  weight gained compared to start weight: 0.7 ± 0.2 g
Day 90, Gr. 5, 150 mg/kg
  weight gained compared to start weight: 0.6 ± 0.2 g
FACS, NBMI-treated groups
  percentage of T helper (CD4+/CD3+) and T cytotoxic (CD8+/CD3+) lymphocytes in BAL fluid: not significant altered
Gr. 4, 60 mg/kg
  neutrophils in BAL fluid: tendency to a lower number of neutrophils
Gr. 5, 150 mg/kg
  neutrophils in BAL fluid: tendency to a lower number of neutrophils
Gr. 5, 150 mg/kg, p<0.01
  GM-CSF level in serum vs Gr. 2: lowered
Gr. 5, 150 mg/kg, p<0.05
  MIP-1β level in serum vs Gr. 2: lowered
NBMI-treated animals
  T cytotoxic (CD8+/CD3+) lymphocytes in BAL fluid vs Gr. 2: significant decrease
All NBMI-treated groups
  lymphocytes in BAL fluid (tendency): a lower number of lymphocytes
Animals receiving NBMI
  TGFβ1-3 in lung homogenate vs Gr. 2: did not have significantly changed amount
